The record followed here is patent publication US8871794B2, “Small-molecule agonists for type-2 orexin receptor” (Board of Regents, The University of Texas System, priority 2008, dated 2014).

Structures are written as SMILES.

For one series, the target named is T1, GRP receptor (Homo sapiens, UniProt P30550).
T1 construct: Open reading frames of OX1R, OX2R and GRP (control) receptor were inserted into a bicistronic retrovirus expression vector; expressed in transfected cells; host or cells: CHO cells harboring ecotropic retroviral receptor, infected with retrovirus and selected with puromycin
Put plainly: Intracellular Calcium Transient Assay in CHO cells expressing control GRP receptor. In kind it is cell-based. The settings on record: cells expressing an unrelated Gq-coupled GPCR (GRP receptor). As for the experimental part:
(§1) DNA Construction: Open reading frames of OX1R, OX2R and GRP (control) receptor were inserted into a bicistronic retrovirus expression vector, pMXs-IRES-puror (pMXs-IP), which carried a FLAG™ epitope cDNA sequence at the beginning of the ORF sequences encoding their human polypeptides.
(§2) Transfection and retrovirus production: Transfection was carried out using FuGENE 6 (Roche Diagnostics Corp.) according to the manufacturer's recommendations. Retroviruse fluid was harvested after 48 hours post transfection.
(§3) Cell lines: To generate receptor expressing cells, CHO cells harboring ecotropic retroviral receptor were infected with a retroviral supernatant. After 24 hours post infection, the retrovirus supernatant was removed and infected cells were selected with 10 μg/ml of puromycin (Sigma-Aldrich, St. Louis, Mo.). […]
(§4) 0.5 ml aliquot of the cell suspension was stimulated by addition of 5 μl of compound dissolved in DMSO. Changes of [Ca^2+]i transients in cells were measured at RT by using CAF-110 Intracellular Ion Analyser (JASCO, Tokyo) with the excitation wave lengths of 340 nm and 380 nm and emission wavelength of 500 nm
(In general: Calcium assays in cells follow changes in intracellular calcium, usually with a dye or a luminescent sensor.)

The target of series [1] is T2, OX2R (Homo sapiens, UniProt O43614).
T2 sequence (O43614 1-444): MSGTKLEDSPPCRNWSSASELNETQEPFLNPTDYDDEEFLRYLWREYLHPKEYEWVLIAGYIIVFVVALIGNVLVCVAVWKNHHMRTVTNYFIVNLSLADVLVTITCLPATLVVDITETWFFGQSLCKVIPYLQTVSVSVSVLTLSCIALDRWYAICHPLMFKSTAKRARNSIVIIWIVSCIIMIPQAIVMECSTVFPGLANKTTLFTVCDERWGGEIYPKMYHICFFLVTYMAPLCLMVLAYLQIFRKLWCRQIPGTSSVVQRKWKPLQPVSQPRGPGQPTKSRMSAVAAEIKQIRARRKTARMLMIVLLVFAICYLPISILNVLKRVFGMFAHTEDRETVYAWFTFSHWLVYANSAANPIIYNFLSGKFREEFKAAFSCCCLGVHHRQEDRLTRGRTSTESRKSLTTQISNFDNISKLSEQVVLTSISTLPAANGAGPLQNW
Put plainly: CRE reporter assay, OX2R. In kind it is cell-based. Set-up: expressed in transfected cells; host or cells: HEK293T cells, transient co-transfection. A general note: Reporter assays use an easily measured gene product as a stand-in for the process of interest.

Series [2] concerns the target T2, OX2R. The experiment in a line: NFAT-luciferase transcriptional reporter assay in transiently co-transfected HEK293T cells. In kind it is cell-based. Set-up: expressed in transfected cells; host or cells: HEK293T cells, transient co-transfection.
Series [3] can be described thus: IP pharmacokinetics in C57BL/6 mice (plasma and brain). In kind it is in vivo, mouse. The conditions noted are these: 30 mg/kg IP, one of the two mice.
Series [4] deals with T2, OX2R. The experiment in a line: Intracellular Calcium Transient Assay in OX2R-expressing CHO cells. The format is cell-based. Set-up: expressed in transfected cells. As for the experimental part:
as §1, §2, §3, §4

Another series has as its target T3, OX1R (Homo sapiens, UniProt O43613).
T3 construct: Open reading frames of OX1R, OX2R and GRP (control) receptor were inserted into a bicistronic retrovirus expression vector; expressed in transfected cells; host or cells: CHO cells harboring ecotropic retroviral receptor, infected with retrovirus and selected with puromycin
T3 sequence (O43613 1-425): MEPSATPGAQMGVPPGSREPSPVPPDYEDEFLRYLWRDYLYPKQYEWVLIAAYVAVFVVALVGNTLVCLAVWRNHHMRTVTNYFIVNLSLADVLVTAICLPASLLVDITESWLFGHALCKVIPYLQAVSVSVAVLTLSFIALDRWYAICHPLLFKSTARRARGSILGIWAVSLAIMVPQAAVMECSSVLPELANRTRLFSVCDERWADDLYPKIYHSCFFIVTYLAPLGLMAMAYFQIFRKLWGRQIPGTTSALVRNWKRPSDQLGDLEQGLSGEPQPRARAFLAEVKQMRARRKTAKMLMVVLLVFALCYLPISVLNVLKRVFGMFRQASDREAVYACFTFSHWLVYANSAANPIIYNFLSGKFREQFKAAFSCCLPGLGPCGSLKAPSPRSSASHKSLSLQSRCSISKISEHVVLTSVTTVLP
Put plainly: Intracellular Calcium Transient Assay in OX1R-expressing CHO cells. In kind it is cell-based. How it is done: as §1, §2, §3, §4

T1 sequence (P30550 whole entry): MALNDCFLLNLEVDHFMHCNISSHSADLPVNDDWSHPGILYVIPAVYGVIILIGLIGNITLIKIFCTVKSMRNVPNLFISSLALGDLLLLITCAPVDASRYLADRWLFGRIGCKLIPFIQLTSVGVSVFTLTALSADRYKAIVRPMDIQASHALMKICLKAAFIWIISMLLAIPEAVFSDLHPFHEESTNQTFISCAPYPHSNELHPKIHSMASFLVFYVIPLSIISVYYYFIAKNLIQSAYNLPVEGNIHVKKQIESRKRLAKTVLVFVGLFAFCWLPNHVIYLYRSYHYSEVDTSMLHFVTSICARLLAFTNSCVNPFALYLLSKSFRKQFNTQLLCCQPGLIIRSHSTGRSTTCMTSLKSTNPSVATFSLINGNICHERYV

Take `Cc1ccc(Cn2c(=N)n(CC(O)c3ccc(Cl)c(Cl)c3)c3ccccc32)cc1` (stereo not drawn) [Compound 130699]: the entries for the “Ca2+ response” value at GRP receptor, at OX2R [4] and on OX1R were “no response”, “robust Ca2+ response” and “weaker response”, respectively. For the same compound, the “reporter activation in a distinct CRE reporter system” value on OX2R [1] is “confirmed reporter activation”. Also, the “Fold Induction, OX2R_CRE” value on OX2R [1] (CRE reporter) is on record as 5.1935. In addition, the “activation in transcriptional reporter assays” value at OX2R [2] (HEK293T cells, NFAT-luciferase reporter plasmid and receptor cDNA plasmid) was “dramatic activation”. Besides, the “Fold Induction, OX2R_NFTA (1)” value on OX2R [2] (assay (1)) turned out to be 10.94. The “Fold Induction, OX2R_NFTA (2)” value on OX2R [2] (assay (2)) was 35.566. Also, the “acute reaction after injection” value in series [3] was “abdominal guarding and decreased activity for up to one hour”.
